Key:
[1] = test system: ischemic small intestine segments (jejunum to ileum); assay: Ex vivo intestinal ischemia: transmural fluorescein transport across wall of flushed intestinal segments; parameters: species or system rat
Description: Intestinal Ischemia—Since intestinal properties are non-homogenous, the transmural permeability was investigated over the entire length of the jejunum and ileum. Due to physical constraints of the small intestine anatomy, it is not feasible to simultaneously analyze permeability from multiple segments in vivo. Therefore, an ex vivo approach similar to previously published studies was designed to measure permeability along the length of the small intestine.
A midline incision was made to expose the intestine in anesthetized rats. The proximal end of the jejunum (approximately 5 cm distal from the ligament of Treitz) was cannulated with a female luer to barb tube connector (⅛″ inner diameter). The intestine was removed and placed in saline immediately before euthanasia. In order to focus the analysis on permeability of the intestinal wall during ischemia in the absence of luminal contents (including the digestive proteases or cytotoxic factors from food), the lumen of the intestine was flushed with 40 ml saline using pulsatile pressure. Visual examination confirmed all solid contents were removed. Next, the intestine was cut into eight equal length segments (˜8 cm) sequentially ordered from the proximal jejunum (position 1) to the distal ileum (position 8). Both ends of each segment were cannulated with Female Luer to Barb tube connectors (thus allowing entry and exit points from the intestinal lumen to be sealed completely), secured with 4-0 suture, and the exterior portion of one adaptor on each segment sealed with clay.
To determine the transmural permeability of the intestine, all 8 segments from each animal were filled with a low molecular weight tracer as a sensitive measure of early barrier breakdown prior to the initiation of ischemia, fluorescein (332 Da M.W., 20 μg/ml from 5 mg/ml stock in ethanol; 0.308 osm/L; Sigma-Aldrich, St. Louis, Mo.) mixed with saline, glucose (100 mg/ml in saline; 0.550 moles/L; 0.863 osm/L, Sigma-Aldrich), the non-metabolizing glucose analog mannitol (100 mg/ml in saline; 0.550 moles/L; 0.863 osm/L), the serine protease inhibitor tranexamic acid (31 mg/ml in saline; 0.200 moles/L; 0.508 osm/L, Sigma-Aldrich), the MMP inhibitor doxycycline hyclate (1 mg/ml in saline; 1.955×10^−3 moles/L; 0.310 osm/L, Sigma-Aldrich), or the MMP inhibitor GM 6001 [38] (1 μg/ml in saline from 1 mg/ml stock in DMSO; 2.57×10^−6 moles/L; 0.308 osm/L, Millipore, Billerica, Md.). […]
Sealed segments were rinsed in saline, individually placed in 15 ml conical tubes containing 6 ml saline, and incubated at 37° C. for 2 hours to simulate ischemic conditions. […] Plates were read in a plate reader (FilterMax F-5 Multi-mode, Molecular Devices, Sunnyvale, Calif.) for concentration of fluorescein (excitation 494/emission 521) to measure diffusion across the wall of the intestine.
Permeability Analysis—To determine the fluorescein transport across the ischemic intestinal wall, the fluorescence at time 0 was subtracted from fluorescence values at later time points to correct for background, and fluorescence values were corrected to account for the volume reduction due to sampling during the experiment. The RFU measurements were converted to equivalent moles by using the linear relationship between concentration and fluorescein fluorescence (not shown, R^2=0.999). The transport of fluorescein across the wall (measured in moles, per time) was computed as the change in fluorescence over a 30 min interval divided by 30 min.

[2] = test system: intestinal villi; assay: Morphological analysis of intestinal villi after ex vivo ischemia (Van Gieson/hematoxylin); parameters: species or system rat; conditions: for intestinal villi structure: jejunum and ileum after 2 hrs ex vivo ischemia
Protocol: After the two-hour ischemic incubation, intestinal pieces from segments 2 (jejunum) and 7 (ileum) were embedded in O.C.T. (Tissue Tek, Torrance, Calif.) and snap frozen in t-methyl butane in liquid nitrogen. Intestine samples from segments 2 and 7 (for protease analysis) and segment 7 (for immunoblots) were snap frozen and stored for subsequent homogenization. Morphological Analysis and TUNEL Labeling—Intestinal segments frozen in O.C.T. were cut into 5 μm sections. Sections were fixed using ice-cold methanol (8 min at −20° C.) and immediately washed four times in distilled water. Nuclei were stained by incubating sections in freshly mixed Weigert's Iron Hematoxylin A and B (Electron Microscopy Science, Hatfield, Pa.) (10 min) followed by rinsing thoroughly with water. Collagen fibers were labeled by incubating (2 min) in Van Gieson's Solution (Electron Microscopy Science). Prior to mounting, all slides were dehydrated (70, 95, 100% ethanol) and cleaned with xylene. After air-drying overnight, sections were mounted using Hard Set Mounting Media (Vector Laboratories, Burlingame, Calif.). Digital images were captured with a 20× objective (numerical aperture 0.5) and digitally montaged together after background subtraction. The separation of the mucosal epithelial layer was quantified for groups that had intact villi following the two hour ischemic period. Images were blinded and the distance between the mucosal epithelial layer and the lamina propria was measured over five lengths across a minimum of 6 villi.

SMILES | fluorescein transport rates, 30-60 min and 60-90 min periods ([1]; ex vivo ischemia, inhibitor in lumen without glucose, vs saline) | intestinal villi structure [2] | fluorescein transport across the wall of the intestine ([1]; ex vivo, treatment in lumen, two-hour ischemic period) | separation between the lamina propria and the mucosal epithelial layer ([2]; jejunum, after 2 hrs ex vivo ischemia)
NC[C@H]1CC[C@H](C(=O)O)CC1 [tranexamic acid] | significantly decreased compared to the saline treated intestines | did not prevent the villi destruction | – | –
O=C[C@H](O)[C@@H](O)[C@H](O)[C@H](O)CO [Glucose, glucose] | – | attenuated | drastically reduced | still observed
